Results from paper PMC4363317, “A Highly Efficient Recombinant Laccase from the Yeast Yarrowia lipolytica and Its Application in the Hydrolysis of Biomass” (PLoS ONE, 2015).

Target: T1, YlLac (Yarrowia lipolytica, UniProt G1C1M2)
T1 construct: ORF 519 residues incl; 19-residue native signal (abstract instead calls the mature protein 519 aa); expressed without native signal behind alpha-factor signal (pPICZalphaA-Wsp-YlLac) in Pichia pastoris KM71H; forward primer GCCATTGGCCCGGTGACC encodes AIGPVT; monomer, glycosylated ~67-68 kDa, ~55 kDa after endoH
T1 sequence (G1C1M2 20-519): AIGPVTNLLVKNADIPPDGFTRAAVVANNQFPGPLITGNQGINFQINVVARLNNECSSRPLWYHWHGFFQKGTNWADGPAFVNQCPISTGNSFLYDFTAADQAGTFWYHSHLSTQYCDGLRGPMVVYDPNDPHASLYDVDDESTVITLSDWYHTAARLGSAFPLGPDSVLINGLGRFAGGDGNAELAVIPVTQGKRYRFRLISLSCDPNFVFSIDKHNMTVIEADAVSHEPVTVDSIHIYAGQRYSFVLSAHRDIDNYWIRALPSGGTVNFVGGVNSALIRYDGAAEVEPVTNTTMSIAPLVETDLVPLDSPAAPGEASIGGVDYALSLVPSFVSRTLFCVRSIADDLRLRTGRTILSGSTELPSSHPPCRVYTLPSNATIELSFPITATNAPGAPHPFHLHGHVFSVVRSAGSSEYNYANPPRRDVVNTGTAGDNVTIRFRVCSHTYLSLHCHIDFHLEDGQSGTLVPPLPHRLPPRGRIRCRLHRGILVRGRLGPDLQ
Experiment: biochemical
Set-up: spectrophotometric ABTS oxidation by purified recombinant YlLac with inhibitor, 50 mM sodium acetate pH 4.8
Settings: 0.1 mM ABTS, pH 4.8, read-out: % of control remaining; for remaining activity at 100 µM: 0.1 mM; for remaining activity at 500 µM: 0.5 mM; for remaining activity at 1000 µM: 1 mM
Protocol: Sodium dodecyl sulfate polyacrylamide gel electrophoresis (SDS-PAGE; 12% w/v polyacrylamide) was performed as described by Laemmli. The native molecular mass was determined by applying samples to a calibrated Sephacryl S-300 HR 16/60 column as recommended by the supplier (GE Healthcare). Purified recombinant YlLac was treated with endoglycosidase H (NEB, Biolabs UK) according to the manufacturer's protocol. YlLac (6 μg) in 1× glycoprotein denaturing buffer was boiled for 10 min. After cooling, 1 μl of endoglycosidase H was added and the sample was incubated at 37°C overnight. The product of endoglycosidase H treatment was analyzed by SDS-PAGE. Protein bands were stained with Coomassie brilliant blue R-250 (Sigma). The zymogram process was carried out using native PAGE, and the enzyme band was visualized by incubating the gel in 50 mM sodium acetate buffer (pH 4.8) containing 0.1 mM ABTS and 2,6-DMP at room temperature. The UV-vis absorption spectrum of purified laccase was recorded at 25°C on a spectrophotometer (Shimadzu, model UV-1800, Tokyo) in 2 cm path length quartz cells. The effects of pH on laccase activity for various substrates were tested at pH 2–6 in 50 mM citrate-phosphate buffer (pH 2–4) or 50 mM sodium-acetate buffer (pH 4–6). The activity of purified laccase towards the ABTS substrate was examined at 20–80°C at the optimal pH value. The rates of substrate oxidation were determined by measuring the absorbance increases at the respective wavelengths, and the molar extinction coefficients (ε) were obtained from the literature. The effects of various inhibitors and metal ions on the activity of purified laccase were determined using assay mixtures (2 ml) containing appropriately diluted enzyme, 50 mM sodium acetate buffer (pH 4.8), and 0.1 mM ABTS with various concentrations of inhibitors or 5 mM metal ions. Laccase activity in the absence of inhibitor or metal ions was defined as 100%. Measurements were carried out in triplicate. K m and V max values of purified YlLac were determined by measuring the activity of the enzyme with various concentrations (0.01–0.1 mM) of ABTS and 2,6-DMP substrates at the optimal condition in each case. Ki A number of compounds were examined for their effects on YlLac activity, including small ions [compound left out], sulfhydryl group-containing redox reagents (L-cysteine and dithiothreitol, […]), denaturants (thiourea), and a chelator (EDTA) (S2 Table). […] Enzyme activity was not observed in the presence of 0.1 mM NaN3. SDS caused partial inhibition and the metal chelating agent EDTA caused no inhibition. Metal ions such as Cr^3+, Mg^2+, and Mn^2+ inhibited 25%, 24%, and 24% of YlLac activity, respectively.

Row | remaining activity at 100 µM [%] | remaining activity at 500 µM [%] | remaining activity at 1000 µM [%] | SMILES
1 | 61.1 ± 2.4 | 2 ± 0.4 | 0 | O[C@@H](CS)[C@@H](O)CS (racemic) [Dithiothreitol]
2 | 76.6 ± 2.1 | 11.1 ± 1.5 | 0 | N[C@@H](CS)C(=O)O [l-Cysteine]

Row | SMILES | remaining activity at 100 µM [%] | remaining activity at 500 µM [%] | remaining activity at 1000 µM [%]
3 | NC(N)=S [Thiourea] | 91.1 ± 2.1 | 42.2 ± 2 | 12.3 ± 1.5
